From ChEMBL document CHEMBL3885861, “Open TG-GATES”

Species: Rattus norvegicus
Assay: Open TG-GATES - Regimen: Single
Assay type: toxicity, organism-based, Sprague-Dawley
Design: regimen Single, gender Male, age 6 weeks
Details: in vivo, po, 100 mg/kg, route gavage, dose level Low; for APTT / Bas / Eos / Fbg / Hb / Ht / Lym / MCH / MCHC / MCV / Mono / Neu / PT / Plat / RBC / Ret / WBC: tissue Blood; for KIDNEY_L / KIDNEY_R / KIDNEY_TOTAL: tissue Kidney; for LIVER: tissue Liver; for A/G / ALP / ALT / AST / BUN / CRE / Ca / Cl / DBIL / GLC / IP / K / LDH / Na / PL / RALB / TBIL / TC / TG / TP / gamma-GTP: tissue Plasma

Question: O=C(OC[C@H]1O[C@@H](OC(=O)c2cc(O)c(O)c(OC(=O)c3cc(O)c(O)c(O)c3)c2)[C@H](OC(=O)c2cc(O)c(O)c(OC(=O)c3cc(O)c(O)c(O)c3)c2)[C@@H](OC(=O)c2cc(O)c(O)c(OC(=O)c3cc(O)c(O)c(O)c3)c2)[C@@H]1OC(=O)c1cc(O)c(O)c(OC(=O)c2cc(O)c(O)c(O)c2)c1)c1cc(O)c(O)c(OC(=O)c2cc(O)c(O)c(O)c2)c1 [TANNIC ACID] was tested. Which TERMINAL_BW (3 h) did it give?
Answer: 188.9 g

Question: And the APTT (3 h)?
Answer: 16.1 s

Question: And the Bas (3 h)?
Answer: 0%

Question: And the Eos (3 h)?
Answer: 1.2%

Question: What about the Fbg (3 h) of the same molecule?
Answer: 212.2 mg/dL

Question: What about the Hb (3 h) of the same molecule?
Answer: 13 g/dL

Question: And the Ht (3 h)?
Answer: 38.5%

Question: And the Lym (3 h)?
Answer: 82%

Question: And the MCH (3 h)?
Answer: 22.2 pg

Question: And the MCHC (3 h)?
Answer: 33.8%

Question: And the MCV (3 h)?
Answer: 65.6 fL

Question: And the Mono (3 h)?
Answer: 5.8%

Question: And the Neu (3 h)?
Answer: 11.2%

Question: What about the PT (3 h) of the same molecule?
Answer: 11.5 s

Question: And the Plat (3 h)?
Answer: 112.2 x10_4/uL

Question: What about the RBC (3 h) of the same molecule?
Answer: 587 x10_4/ul

Question: What about the Ret (3 h) of the same molecule?
Answer: 10.1%

Question: What about the WBC (3 h) of the same molecule?
Answer: 96.7 x10_2/uL

Question: What about the KIDNEY_L (3 h) of the same molecule?
Answer: 0.9 g

Question: And the KIDNEY_R (3 h)?
Answer: 0.9 g

Question: And the KIDNEY_TOTAL (3 h)?
Answer: 1.7 g

Question: And the LIVER (3 h)?
Answer: 8.6 g

Question: What about the A/G (3 h) of the same molecule?
Answer: 2

Question: What about the ALP (3 h) of the same molecule?
Answer: 882 IU/L

Question: And the ALT (3 h)?
Answer: 37.8 IU/L

Question: And the AST (3 h)?
Answer: 70.2 IU/L

Question: What about the BUN (3 h) of the same molecule?
Answer: 15.8 mg/dL

Question: And the CRE (3 h)?
Answer: 0.5 mg/dL

Question: What about the Ca (3 h) of the same molecule?
Answer: 10.9 mg/dL

Question: And the Cl (3 h)?
Answer: 105 meq/L

Question: What about the DBIL (3 h) of the same molecule?
Answer: 0.018 mg/dL

Question: And the GLC (3 h)?
Answer: 198 mg/dL

Question: And the IP (3 h)?
Answer: 10.2 mg/dL

Question: What about the K (3 h) of the same molecule?
Answer: 4.9 meq/L

Question: And the LDH (3 h)?
Answer: 75 IU/L

Question: And the Na (3 h)?
Answer: 139.2 meq/L

Question: And the PL (3 h)?
Answer: 128.8 mg/dL

Question: What about the RALB (3 h) of the same molecule?
Answer: 3.5 g/dL

Question: And the TBIL (3 h)?
Answer: 0.5 mg/dL

Question: What about the TC (3 h) of the same molecule?
Answer: 68.6 mg/dL

Question: And the TG (3 h)?
Answer: 47.6 mg/dL

Question: And the TP (3 h)?
Answer: 5.3 g/dL

Question: What about the gamma-GTP (3 h) of the same molecule?
Answer: 2.2 IU/L

Question: What about the TERMINAL_BW (6 h) of the same molecule?
Answer: 185 g

Question: And the APTT (6 h)?
Answer: 17.1 s

Question: And the Bas (6 h)?
Answer: 0%

Question: And the Eos (6 h)?
Answer: 1%

Question: What about the Fbg (6 h) of the same molecule?
Answer: 212.6 mg/dL

Question: And the Hb (6 h)?
Answer: 12.7 g/dL

Question: What about the Ht (6 h) of the same molecule?
Answer: 37.9%

Question: What about the Lym (6 h) of the same molecule?
Answer: 78.4%

Question: And the MCH (6 h)?
Answer: 22.6 pg

Question: And the MCHC (6 h)?
Answer: 33.5%

Question: What about the MCV (6 h) of the same molecule?
Answer: 67.3 fL

Question: And the Mono (6 h)?
Answer: 6.4%

Question: And the Neu (6 h)?
Answer: 14.6%

Question: What about the PT (6 h) of the same molecule?
Answer: 12 s

Question: And the Plat (6 h)?
Answer: 109.6 x10_4/uL

Question: And the RBC (6 h)?
Answer: 564 x10_4/ul

Question: What about the Ret (6 h) of the same molecule?
Answer: 10.4%

Question: What about the WBC (6 h) of the same molecule?
Answer: 85.8 x10_2/uL

Question: And the KIDNEY_L (6 h)?
Answer: 0.9 g

Question: And the KIDNEY_R (6 h)?
Answer: 0.9 g

Question: And the KIDNEY_TOTAL (6 h)?
Answer: 1.8 g

Question: And the LIVER (6 h)?
Answer: 8.5 g

Question: What about the A/G (6 h) of the same molecule?
Answer: 2

Question: What about the ALP (6 h) of the same molecule?
Answer: 684.8 IU/L

Question: What about the ALT (6 h) of the same molecule?
Answer: 38.6 IU/L

Question: What about the AST (6 h) of the same molecule?
Answer: 70.4 IU/L

Question: And the BUN (6 h)?
Answer: 12.6 mg/dL

Question: And the CRE (6 h)?
Answer: 0.5 mg/dL

Question: And the Ca (6 h)?
Answer: 10.8 mg/dL

Question: What about the Cl (6 h) of the same molecule?
Answer: 105 meq/L

Question: What about the DBIL (6 h) of the same molecule?
Answer: 0.032 mg/dL

Question: And the GLC (6 h)?
Answer: 188.2 mg/dL

Question: And the IP (6 h)?
Answer: 10.4 mg/dL

Question: What about the K (6 h) of the same molecule?
Answer: 4.5 meq/L

Question: And the LDH (6 h)?
Answer: 102.8 IU/L

Question: What about the Na (6 h) of the same molecule?
Answer: 140.6 meq/L

Question: And the PL (6 h)?
Answer: 140.2 mg/dL

Question: What about the RALB (6 h) of the same molecule?
Answer: 3.5 g/dL

Question: And the TBIL (6 h)?
Answer: 0.5 mg/dL

Question: And the TC (6 h)?
Answer: 86 mg/dL

Question: And the TG (6 h)?
Answer: 41.4 mg/dL

Question: And the TP (6 h)?
Answer: 5.3 g/dL

Question: And the gamma-GTP (6 h)?
Answer: 1.2 IU/L

Question: And the TERMINAL_BW (9 h)?
Answer: 180.9 g

Question: And the APTT (9 h)?
Answer: 16.4 s

Question: And the Bas (9 h)?
Answer: 0%

Question: And the Eos (9 h)?
Answer: 1%

Question: What about the Fbg (9 h) of the same molecule?
Answer: 217.4 mg/dL

Question: And the Hb (9 h)?
Answer: 13.2 g/dL

Question: What about the Ht (9 h) of the same molecule?
Answer: 39.3%

Question: And the Lym (9 h)?
Answer: 80.4%

Question: And the MCH (9 h)?
Answer: 22.3 pg

Question: What about the MCHC (9 h) of the same molecule?
Answer: 33.6%

Question: And the MCV (9 h)?
Answer: 66.5 fL

Question: And the Mono (9 h)?
Answer: 6.8%

Question: What about the Neu (9 h) of the same molecule?
Answer: 12%

Question: And the PT (9 h)?
Answer: 12 s

Question: What about the Plat (9 h) of the same molecule?
Answer: 112.9 x10_4/uL

Question: What about the RBC (9 h) of the same molecule?
Answer: 591.6 x10_4/ul

Question: What about the Ret (9 h) of the same molecule?
Answer: 10.1%

Question: And the WBC (9 h)?
Answer: 105.1 x10_2/uL

Question: And the KIDNEY_L (9 h)?
Answer: 0.8 g

Question: What about the KIDNEY_R (9 h) of the same molecule?
Answer: 0.8 g

Question: And the KIDNEY_TOTAL (9 h)?
Answer: 1.6 g

Question: And the LIVER (9 h)?
Answer: 7.2 g

Question: And the A/G (9 h)?
Answer: 2

Question: And the ALP (9 h)?
Answer: 837.8 IU/L

Question: And the ALT (9 h)?
Answer: 35.2 IU/L

Question: What about the AST (9 h) of the same molecule?
Answer: 64.2 IU/L

Question: And the BUN (9 h)?
Answer: 12.6 mg/dL

Question: What about the CRE (9 h) of the same molecule?
Answer: 0.4 mg/dL

Question: And the Ca (9 h)?
Answer: 10.3 mg/dL

Question: What about the Cl (9 h) of the same molecule?
Answer: 106.4 meq/L

Question: What about the DBIL (9 h) of the same molecule?
Answer: 0.072 mg/dL

Question: And the GLC (9 h)?
Answer: 190.2 mg/dL

Question: And the IP (9 h)?
Answer: 10.2 mg/dL

Question: What about the K (9 h) of the same molecule?
Answer: 4.9 meq/L

Question: And the LDH (9 h)?
Answer: 101.4 IU/L

Question: And the Na (9 h)?
Answer: 137.6 meq/L

Question: And the PL (9 h)?
Answer: 135.2 mg/dL

Question: And the RALB (9 h)?
Answer: 3.6 g/dL

Question: What about the TBIL (9 h) of the same molecule?
Answer: 0.5 mg/dL

Question: What about the TC (9 h) of the same molecule?
Answer: 78.8 mg/dL

Question: And the TG (9 h)?
Answer: 24.6 mg/dL

Question: What about the TP (9 h) of the same molecule?
Answer: 5.4 g/dL

Question: And the gamma-GTP (9 h)?
Answer: 1.6 IU/L

Question: What about the TERMINAL_BW (24 h) of the same molecule?
Answer: 201.1 g

Question: What about the APTT (24 h) of the same molecule?
Answer: 16.7 s

Question: What about the Bas (24 h) of the same molecule?
Answer: 0%

Question: And the Eos (24 h)?
Answer: 1%

Question: And the Fbg (24 h)?
Answer: 227.8 mg/dL

Question: What about the Hb (24 h) of the same molecule?
Answer: 12.8 g/dL

Question: And the Ht (24 h)?
Answer: 38.4%

Question: And the Lym (24 h)?
Answer: 78.8%

Question: What about the MCH (24 h) of the same molecule?
Answer: 21.9 pg

Question: What about the MCHC (24 h) of the same molecule?
Answer: 33.4%

Question: And the MCV (24 h)?
Answer: 65.6 fL

Question: And the Mono (24 h)?
Answer: 5.4%

Question: And the Neu (24 h)?
Answer: 14.8%

Question: And the PT (24 h)?
Answer: 11.7 s

Question: What about the Plat (24 h) of the same molecule?
Answer: 114.5 x10_4/uL

Question: What about the RBC (24 h) of the same molecule?
Answer: 585.2 x10_4/ul

Question: What about the Ret (24 h) of the same molecule?
Answer: 10.1%

Question: And the WBC (24 h)?
Answer: 96.6 x10_2/uL

Question: What about the KIDNEY_L (24 h) of the same molecule?
Answer: 0.9 g

Question: What about the KIDNEY_R (24 h) of the same molecule?
Answer: 0.9 g

Question: What about the KIDNEY_TOTAL (24 h) of the same molecule?
Answer: 1.8 g

Question: What about the LIVER (24 h) of the same molecule?
Answer: 9.7 g

Question: And the A/G (24 h)?
Answer: 2

Question: What about the ALP (24 h) of the same molecule?
Answer: 823.4 IU/L

Question: And the ALT (24 h)?
Answer: 41.2 IU/L

Question: And the AST (24 h)?
Answer: 63 IU/L

Question: And the BUN (24 h)?
Answer: 17.8 mg/dL

Question: What about the CRE (24 h) of the same molecule?
Answer: 0.5 mg/dL

Question: What about the Ca (24 h) of the same molecule?
Answer: 10.8 mg/dL

Question: And the Cl (24 h)?
Answer: 103.8 meq/L

Question: What about the DBIL (24 h) of the same molecule?
Answer: 0.008 mg/dL

Question: What about the GLC (24 h) of the same molecule?
Answer: 190.6 mg/dL

Question: What about the IP (24 h) of the same molecule?
Answer: 8.7 mg/dL

Question: What about the K (24 h) of the same molecule?
Answer: 4.5 meq/L

Question: And the LDH (24 h)?
Answer: 98.2 IU/L

Question: And the Na (24 h)?
Answer: 138 meq/L

Question: And the PL (24 h)?
Answer: 147.2 mg/dL

Question: What about the RALB (24 h) of the same molecule?
Answer: 3.6 g/dL

Question: And the TBIL (24 h)?
Answer: 0.3 mg/dL

Question: What about the TC (24 h) of the same molecule?
Answer: 81.4 mg/dL

Question: And the TG (24 h)?
Answer: 101.6 mg/dL

Question: And the TP (24 h)?
Answer: 5.5 g/dL

Question: And the gamma-GTP (24 h)?
Answer: 1 IU/L
